Legend:
Experiment in all cases: relative viability (nuclei count vs DMSO), 5 days (fraction); higher = more cells survive
[1] = compound: C1CC1C(=O)NC2=NNC3=C2C=CC(=C3)C4=CC(=CC=C4)C(=O)NC5CC5 [XMD13-2] + Nc1nc2[nH]cc(CCc3ccc(C(=O)N[C@@H](CCC(=O)O)C(=O)O)cc3)c2c(=O)[nH]1 [Pemetrexed] (partner 0.2 µM)
Outline: (§1)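 The day after seeding in 1536-well plates, lung cancer cell lines were treated by pin tool with a single drug, or with a fixed anchor-drug dose together with five library-drug doses (not always all listed) in √10 steps. After 5 days, a combined fix-and-stain solution (final 0.05% Triton X-100, 1% formaldehyde, 1 ug/ml Hoechst) was added. Nuclei counted on 4× images gave relative viability as treated counts over vehicle counts, reported as the median of duplicate plates.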

[2] = compound: C1CC1C(=O)NC2=NNC3=C2C=CC(=C3)C4=CC(=CC=C4)C(=O)NC5CC5 [XMD13-2] + O=C(c1cc(Cc2n[nH]c(=O)c3ccccc23)ccc1F)N1CCN(C(=O)C2CC2)CC1 [Olaparib] (partner 8 µM)
Outline: as §1

[3] = compound: Cc1ccc(C(=O)Nc2cccc(C(F)(F)F)c2)cc1Nc1cncc(C(N)=O)c1 [ALW-II-49-7] + CC(=O)Nc1cccc(-n2c(=O)n(C3CC3)c(=O)c3c(Nc4ccc(I)cc4F)n(C)c(=O)c(C)c32)c1 [Trametinib] (partner 0.02 µM)
Outline: as §1

[4] = compound: Cc1ccc(C(=O)Nc2cccc(C(F)(F)F)c2)cc1Nc1cncc(C(N)=O)c1 [ALW-II-49-7] + O=C(CCCCCCC(=O)Nc1ccccc1)NO [Vorinostat] (partner 1 µM)
Outline: as §1

Cell Line: NCI-H358
- relative viability ([1]; first compound 0.05 µM): 0.171
- relative viability ([1]; first compound 0.1581 µM): 0.168
- relative viability ([1]; first compound 0.5 µM): 0.175
- relative viability ([1]; first compound 1.581 µM): 0.179
- relative viability ([1]; first compound 5 µM): 0.166
- relative viability ([2]; first compound 0.05 µM): 0.72
- relative viability ([2]; first compound 0.1581 µM): 0.618
- relative viability ([2]; first compound 0.5 µM): 0.667
- relative viability ([2]; first compound 1.581 µM): 0.718
- relative viability ([2]; first compound 5 µM): 0.61
- relative viability ([3]; first compound 0.08 µM): 0.117
- relative viability ([3]; first compound 0.253 µM): 0.123
- relative viability ([3]; first compound 0.8 µM): 0.142
- relative viability ([3]; first compound 2.53 µM): 0.14
- relative viability ([3]; first compound 8 µM): 0.119
- relative viability ([4]; first compound 0.08 µM): 1
- relative viability ([4]; first compound 0.253 µM): 0.694
- relative viability ([4]; first compound 0.8 µM): 0.805
- relative viability ([4]; first compound 2.53 µM): 0.574
- relative viability ([4]; first compound 8 µM): 0.447

Cell Line: SW 900
- relative viability ([1]; first compound 0.05 µM): 0.485
- relative viability ([1]; first compound 0.1581 µM): 0.502
- relative viability ([1]; first compound 0.5 µM): 0.508
- relative viability ([1]; first compound 1.581 µM): 0.493
- relative viability ([1]; first compound 5 µM): 0.529
- relative viability ([2]; first compound 0.05 µM): 0.772
- relative viability ([2]; first compound 0.1581 µM): 0.853
- relative viability ([2]; first compound 0.5 µM): 0.922
- relative viability ([2]; first compound 1.581 µM): 0.753
- relative viability ([2]; first compound 5 µM): 0.806
- relative viability ([3]; first compound 0.08 µM): 0.864
- relative viability ([3]; first compound 0.253 µM): 0.869
- relative viability ([3]; first compound 2.53 µM): 0.727
- relative viability ([3]; first compound 8 µM): 0.874
- relative viability ([4]; first compound 0.08 µM): 0.539
- relative viability ([4]; first compound 0.253 µM): 0.554
- relative viability ([4]; first compound 2.53 µM): 0.517
- relative viability ([4]; first compound 8 µM): 0.289

Cell Line: NCI-H1355
- relative viability ([1]; first compound 0.05 µM): 1.04
- relative viability ([1]; first compound 0.1581 µM): 1.05
- relative viability ([1]; first compound 0.5 µM): 1.06
- relative viability ([1]; first compound 1.581 µM): 1.06
- relative viability ([1]; first compound 5 µM): 1.1
- relative viability ([2]; first compound 0.05 µM): 0.755
- relative viability ([2]; first compound 0.1581 µM): 0.716
- relative viability ([2]; first compound 0.5 µM): 0.807
- relative viability ([2]; first compound 1.581 µM): 0.762
- relative viability ([2]; first compound 5 µM): 0.773
- relative viability ([3]; first compound 0.08 µM): 0.371
- relative viability ([3]; first compound 0.253 µM): 0.467
- relative viability ([3]; first compound 0.8 µM): 0.474
- relative viability ([3]; first compound 2.53 µM): 0.384
- relative viability ([3]; first compound 8 µM): 0.438
- relative viability ([4]; first compound 0.08 µM): 0.63
- relative viability ([4]; first compound 0.253 µM): 0.618
- relative viability ([4]; first compound 0.8 µM): 0.615
- relative viability ([4]; first compound 2.53 µM): 0.591
- relative viability ([4]; first compound 8 µM): 0.597

Cell Line: SK-LU-1
- relative viability ([1]; first compound 0.05 µM): 0.997
- relative viability ([1]; first compound 0.1581 µM): 0.964
- relative viability ([1]; first compound 0.5 µM): 1.01
- relative viability ([1]; first compound 1.581 µM): 0.977
- relative viability ([1]; first compound 5 µM): 0.948
- relative viability ([2]; first compound 0.05 µM): 0.499
- relative viability ([2]; first compound 0.1581 µM): 0.444
- relative viability ([2]; first compound 0.5 µM): 0.514
- relative viability ([2]; first compound 1.581 µM): 0.444
- relative viability ([2]; first compound 5 µM): 0.422
- relative viability ([3]; first compound 0.08 µM): 0.569
- relative viability ([3]; first compound 0.253 µM): 0.571
- relative viability ([3]; first compound 0.8 µM): 0.486
- relative viability ([3]; first compound 2.53 µM): 0.408
- relative viability ([3]; first compound 8 µM): 0.442
- relative viability ([4]; first compound 0.08 µM): 0.754
- relative viability ([4]; first compound 0.253 µM): 0.64
- relative viability ([4]; first compound 0.8 µM): 0.551
- relative viability ([4]; first compound 2.53 µM): 0.628
- relative viability ([4]; first compound 8 µM): 0.493

Cell Line: NCI-H2228
- relative viability ([1]; first compound 0.05 µM): 0.354
- relative viability ([1]; first compound 0.1581 µM): 0.315
- relative viability ([1]; first compound 0.5 µM): 0.339
- relative viability ([1]; first compound 1.581 µM): 0.31
- relative viability ([1]; first compound 5 µM): 0.27
- relative viability ([2]; first compound 0.05 µM): 0.834
- relative viability ([2]; first compound 0.1581 µM): 0.517
- relative viability ([2]; first compound 0.5 µM): 0.623
- relative viability ([2]; first compound 1.581 µM): 0.554
- relative viability ([2]; first compound 5 µM): 0.747
- relative viability ([3]; first compound 0.08 µM): 0.413
- relative viability ([3]; first compound 0.253 µM): 0.408
- relative viability ([3]; first compound 0.8 µM): 0.406
- relative viability ([3]; first compound 2.53 µM): 0.521
- relative viability ([3]; first compound 8 µM): 0.373
- relative viability ([4]; first compound 0.08 µM): 0.534
- relative viability ([4]; first compound 0.253 µM): 0.414
- relative viability ([4]; first compound 0.8 µM): 0.513
- relative viability ([4]; first compound 2.53 µM): 0.674
- relative viability ([4]; first compound 8 µM): 0.49

Cell Line: NCI-H2170
- relative viability ([1]; first compound 0.05 µM): 0.284
- relative viability ([1]; first compound 0.1581 µM): 0.294
- relative viability ([1]; first compound 0.5 µM): 0.323
- relative viability ([1]; first compound 1.581 µM): 0.267
- relative viability ([1]; first compound 5 µM): 0.285
- relative viability ([2]; first compound 0.05 µM): 0.663
- relative viability ([2]; first compound 0.1581 µM): 0.554
- relative viability ([2]; first compound 0.5 µM): 0.631
- relative viability ([2]; first compound 1.581 µM): 0.581
- relative viability ([2]; first compound 5 µM): 0.601
- relative viability ([3]; first compound 0.08 µM): 0.925
- relative viability ([3]; first compound 0.253 µM): 0.937
- relative viability ([3]; first compound 0.8 µM): 0.977
- relative viability ([3]; first compound 2.53 µM): 0.924
- relative viability ([3]; first compound 8 µM): 0.854
- relative viability ([4]; first compound 0.08 µM): 0.917
- relative viability ([4]; first compound 0.253 µM): 0.921
- relative viability ([4]; first compound 0.8 µM): 0.841
- relative viability ([4]; first compound 2.53 µM): 0.796
- relative viability ([4]; first compound 8 µM): 0.867

Cell Line: NCI-H2347
- relative viability ([1]; first compound 0.05 µM): 0.458
- relative viability ([1]; first compound 0.1581 µM): 0.443
- relative viability ([1]; first compound 0.5 µM): 0.446
- relative viability ([1]; first compound 1.581 µM): 0.453
- relative viability ([1]; first compound 5 µM): 0.45
- relative viability ([2]; first compound 0.05 µM): 0.608
- relative viability ([2]; first compound 0.1581 µM): 0.538
- relative viability ([2]; first compound 0.5 µM): 0.598
- relative viability ([2]; first compound 1.581 µM): 0.532
- relative viability ([2]; first compound 5 µM): 0.601
- relative viability ([3]; first compound 0.08 µM): 0.326
- relative viability ([3]; first compound 0.253 µM): 0.299
- relative viability ([3]; first compound 0.8 µM): 0.252
- relative viability ([3]; first compound 2.53 µM): 0.297
- relative viability ([3]; first compound 8 µM): 0.28
- relative viability ([4]; first compound 0.08 µM): 0.519
- relative viability ([4]; first compound 0.253 µM): 0.5
- relative viability ([4]; first compound 0.8 µM): 0.653
- relative viability ([4]; first compound 2.53 µM): 0.49
- relative viability ([4]; first compound 8 µM): 0.559

Cell Line: A-427
- relative viability ([1]; first compound 0.05 µM): 1.04
- relative viability ([1]; first compound 0.1581 µM): 0.922
- relative viability ([1]; first compound 0.5 µM): 0.995
- relative viability ([1]; first compound 5 µM): 0.82
- relative viability ([2]; first compound 0.05 µM): 0.814
- relative viability ([2]; first compound 0.1581 µM): 0.688
- relative viability ([2]; first compound 0.5 µM): 0.728
- relative viability ([2]; first compound 5 µM): 0.485
- relative viability ([3]; first compound 0.08 µM): 0.733
- relative viability ([3]; first compound 0.253 µM): 0.777
- relative viability ([3]; first compound 0.8 µM): 0.761
- relative viability ([3]; first compound 2.53 µM): 0.691
- relative viability ([3]; first compound 8 µM): 0.585
- relative viability ([4]; first compound 0.08 µM): 0.936
- relative viability ([4]; first compound 0.253 µM): 0.902
- relative viability ([4]; first compound 0.8 µM): 0.854
- relative viability ([4]; first compound 2.53 µM): 0.838
- relative viability ([4]; first compound 8 µM): 0.826
